# From ChEMBL document CHEMBL1221263, “Preliminary studies of 3,4-dichloroaniline amides as antiparasitic agents: structure-activity analysis of a compound library in vitro against Trichomonas vaginalis” (Bioorg Med Chem Lett, 2010)
# How the values were obtained:
# Trichomonas vaginalis [1] = assay: Antiparasitic activity against Trichomonas vaginalis T1 at 100 uM after 24 hrs by hemocytometric analysis; type: functional; settings: T1, 24 h
# Trichomonas vaginalis [2] = assay: Antiparasitic activity against Trichomonas vaginalis G3 at 100 uM after 24 hrs by hemocytometric analysis; type: functional; settings: G3, 24 h
# [3] = Cytotoxicity against human CFU-GM cells; type: cell-based
# [4] = Cytotoxicity against human erythroid progenitor cells; type: cell-based
# Trichomonas vaginalis [5] = assay: Antiparasitic activity against Trichomonas vaginalis T1 after 24 hrs by hemocytometric analysis; type: functional, organism-based; settings: T1, 24 h
# Trichomonas vaginalis [6] = assay: Antiparasitic activity against Trichomonas vaginalis G3 after 24 hrs by hemocytometric analysis; type: functional; settings: G3, 24 h
IC50 (Trichomonas vaginalis [5]) [µM],IC50 (Trichomonas vaginalis [6]) [µM],Compound,inhibition at 100 µM (Trichomonas vaginalis [1]) [%],inhibition at 100 µM (Trichomonas vaginalis [2]) [%],IC50 [3] [µM],IC50 [4] [µM]
–,–,O=C(Nc1ccc(Cl)c(Cl)c1)c1ccc(Cl)cc1Cl,38,46,–,–
–,–,O=C(Nc1ccc(O)cc1)C1CCCCC1,25,39,–,–
–,–,O=C(Nc1ccc(Cl)c(Cl)c1)c1ccc(Cl)c(Cl)c1,29,55,–,–
–,–,O=C(Nc1ccc(Cl)c(Cl)c1)c1ccc(Cl)cc1,46,28,–,–
–,–,CC(=O)Nc1ccc(O)cc1 [ACETAMINOPHEN],17,14,–,–
–,–,COc1ccc(-c2ccccc2)cc1NC(=O)C1CCCCC1,36,28,–,–
–,–,O=C(Nc1ccc(Cl)c(Cl)c1)c1ccc([N+](=O)[O-])cc1,44,40,–,–
–,–,O=C(Nc1ccc(Cl)c(Cl)c1)c1cccc(F)c1,29,61,–,–
0.72,0.77,Cc1ncc([N+](=O)[O-])n1CCO [METRONIDAZOLE],–,–,–,–
–,–,O=C(Nc1ccc(Cl)c(Cl)c1)c1cccc([N+](=O)[O-])c1,22,51,–,–
–,–,O=C(Nc1ccc(Cl)c(Cl)c1)c1ccc(-c2ccccc2)cc1,64,24,–,–
–,–,O=C1C=CC(=O)c2c(O)cccc21 [JUGLONE],39,49,–,–
–,–,O=C(Nc1ccc(Cl)c(Cl)c1)C1CCCCC1,62,30,–,–
–,–,O=C(Nc1ccc(Cl)c(Cl)c1)C12CC3CC(CC(C3)C1)C2,0,19,–,–
–,–,O=C1C(Cl)=C(Cl)C(=O)C(Cl)=C1Cl [CHLORANIL],12,40,–,–
77,90,O=C(Nc1ccc(Cl)c(Cl)c1)c1cccc(C(F)(F)F)c1,69,66,–,–
–,–,O=Cc1ccc(-c2ccc(Cl)cc2[N+](=O)[O-])o1,59,46,–,–
–,–,COc1ccc(NC(=O)C2CCCCC2)cc1OC,34,10,–,–
–,–,COc1ccc(C(=O)Nc2ccc(Cl)c(Cl)c2)cc1,22,13,–,–
–,–,O=C(Nc1ccc(Cl)c(Cl)c1)c1cccc2ccccc12,49,37,–,–
–,–,O=C(Nc1ccc(Cl)c(Cl)c1)c1cccc(Cl)c1,19,70,–,–

Compound,IC50 (Trichomonas vaginalis [5]) [µM],IC50 (Trichomonas vaginalis [6]) [µM],inhibition at 100 µM (Trichomonas vaginalis [1]) [%],inhibition at 100 µM (Trichomonas vaginalis [2]) [%],IC50 [3] [µM],IC50 [4] [µM]
CCC(=O)Nc1ccc(Cl)c(Cl)c1 [PROPANIL],120,–,29,20,> 500,305
